{"source": "patent US5476966A", "about": "“Method for depletion of glutathione” (Cornell Research Foundation, Inc., priority 1995, dated 1995)", "key": {"glutathione": {"test_system": "glutathione", "test": "Tissue glutathione after oral administration of sulfoximines (Table 5)", "format": "in vivo, mouse", "details": "for % Decrease in glutathione / Glutathione level: 2 mmol/Kg oral", "description": "Male mice (Swiss Webster) were fasted overnight (about 16 hr.) L-buthionine-SR-sulfoximine (BSO, S-n-butyl homocysteine-SR-sulfoximine), L-S-cyclohexylmethyl homocysteine-SR-sulfoximine (CHMSO); L-S-2-ethylbutylhomocysteine-SR-sulfoximine (2 EtBSO, L-S-2-ethylbutyl homocysteine-SR-sulfoximine, or saline (0.9% NaCl) were administered to mice at 2 mmol/Kg by intubation (100 mM; pH about 1 with HCl (200 mM). At the times indicated, plasma and tissues were obtained and assayed for glutathione (GSH+1/2 GSSG) as described by Anderson, Methods in Enzymology, 1985, 113:548-555. (See Table 4 and 5.)"}, "Trypanosoma brucei": {"test_system": "Trypanosoma brucei", "details": "six mice treated, cited from earlier work"}, "[1]": {"test_system": "human lymphoid cell lines", "details": "cited from earlier work"}}, "data": [{"smiles": "CCCCS(=N)(=O)CCC(N)C(=O)O", "note": "[BSO, L-S-butyl homocysteine-SR-sulfoximine]", "values": [{"measurement": "decrease in brain glutathione levels", "setting": "glutathione; 2 mmol/kg, 12 hours, experimental error about 5%", "value": "~20", "unit": "%"}, {"measurement": "decrease in glutathione levels (cardio-toxicity)", "setting": "glutathione; 2 hours, 2 mmol/kg, mice", "value": 22, "unit": "%"}, {"measurement": "% Decrease in glutathione", "setting": "glutathione; brain, 2 hr", "value": 0, "unit": "%"}, {"measurement": "Glutathione level", "setting": "glutathione; brain, 2 hr", "value": 2.17, "unit": "µmol/g"}, {"measurement": "% Decrease in glutathione", "setting": "glutathione; brain, 4 hr", "value": 10, "unit": "%"}, {"measurement": "Glutathione level", "setting": "glutathione; brain, 4 hr", "value": 1.95, "unit": "µmol/g"}, {"measurement": "% Decrease in glutathione", "setting": "glutathione; brain, 8 hr", "value": 12, "unit": "%"}, {"measurement": "Glutathione level", "setting": "glutathione; brain, 8 hr", "value": 2.04, "unit": "µmol/g"}, {"measurement": "% Decrease in glutathione", "setting": "glutathione; brain, 12 hr", "value": 18, "unit": "%"}, {"measurement": "Glutathione level", "setting": "glutathione; brain, 12 hr", "value": 1.64, "unit": "µmol/g"}, {"measurement": "% Decrease in glutathione", "setting": "glutathione; heart, 2 hr", "value": 22, "unit": "%"}, {"measurement": "Glutathione level", "setting": "glutathione; heart, 2 hr", "value": 0.86, "unit": "µmol/g"}, {"measurement": "% Decrease in glutathione", "setting": "glutathione; heart, 4 hr", "value": 17, "unit": "%"}, {"measurement": "Glutathione level", "setting": "glutathione; heart, 4 hr", "value": 0.91, "unit": "µmol/g"}, {"measurement": "% Decrease in glutathione", "setting": "glutathione; heart, 8 hr", "value": 36, "unit": "%"}, {"measurement": "Glutathione level", "setting": "glutathione; heart, 8 hr", "value": 0.65, "unit": "µmol/g"}, {"measurement": "% Decrease in glutathione", "setting": "glutathione; heart, 12 hr", "value": 49, "unit": "%"}, {"measurement": "Glutathione level", "setting": "glutathione; heart, 12 hr", "value": 0.58, "unit": "µmol/g"}, {"measurement": "% Decrease in glutathione", "setting": "glutathione; kidney, 2 hr", "value": 71, "unit": "%"}, {"measurement": "Glutathione level", "setting": "glutathione; kidney, 2 hr", "value": 0.81, "unit": "µmol/g"}, {"measurement": "% Decrease in glutathione", "setting": "glutathione; kidney, 4 hr", "value": 80, "unit": "%"}, {"measurement": "Glutathione level", "setting": "glutathione; kidney, 4 hr", "value": 0.57, "unit": "µmol/g"}, {"measurement": "% Decrease in glutathione", "setting": "glutathione; kidney, 8 hr", "value": 86, "unit": "%"}, {"measurement": "Glutathione level", "setting": "glutathione; kidney, 8 hr", "value": 0.44, "unit": "µmol/g"}, {"measurement": "% Decrease in glutathione", "setting": "glutathione; kidney, 12 hr", "value": 91, "unit": "%"}, {"measurement": "Glutathione level", "setting": "glutathione; kidney, 12 hr", "value": 0.30, "unit": "µmol/g"}, {"measurement": "% Decrease in glutathione", "setting": "glutathione; liver, 2 hr", "value": 71, "unit": "%"}, {"measurement": "Glutathione level", "setting": "glutathione; liver, 2 hr", "value": 1.50, "unit": "µmol/g"}, {"measurement": "% Decrease in glutathione", "setting": "glutathione; liver, 4 hr", "value": 87, "unit": "%"}, {"measurement": "Glutathione level", "setting": "glutathione; liver, 4 hr", "value": 0.70, "unit": "µmol/g"}, {"measurement": "% Decrease in glutathione", "setting": "glutathione; liver, 8 hr", "value": 89, "unit": "%"}, {"measurement": "Glutathione level", "setting": "glutathione; liver, 8 hr", "value": 0.60, "unit": "µmol/g"}, {"measurement": "% Decrease in glutathione", "setting": "glutathione; liver, 12 hr", "value": 85, "unit": "%"}, {"measurement": "Glutathione level", "setting": "glutathione; liver, 12 hr", "value": 0.73, "unit": "µmol/g"}, {"measurement": "% Decrease in glutathione", "setting": "glutathione; plasma, 2 hr", "value": 56, "unit": "%"}, {"measurement": "Glutathione level", "setting": "glutathione; plasma, 2 hr", "value": 9.8, "unit": "µM"}, {"measurement": "% Decrease in glutathione", "setting": "glutathione; plasma, 4 hr", "value": 68, "unit": "%"}, {"measurement": "Glutathione level", "setting": "glutathione; plasma, 4 hr", "value": 7.1, "unit": "µM"}, {"measurement": "% Decrease in glutathione", "setting": "glutathione; plasma, 8 hr", "value": 78, "unit": "%"}, {"measurement": "Glutathione level", "setting": "glutathione; plasma, 8 hr", "value": 5.1, "unit": "µM"}, {"measurement": "% Decrease in glutathione", "setting": "glutathione; plasma, 12 hr", "value": 77, "unit": "%"}, {"measurement": "Glutathione level", "setting": "glutathione; plasma, 12 hr", "value": 5.5, "unit": "µM"}, {"measurement": "cure of infected mice", "setting": "Trypanosoma brucei", "value": "two mice were apparently cured"}, {"measurement": "survival of infected mice", "setting": "Trypanosoma brucei; versus untreated infected controls", "value": "four mice survived significantly longer"}, {"measurement": "sensitivity to γ-radiation", "setting": "[1]; cells with 4-5% of control glutathione", "value": "much more sensitive"}, {"measurement": "sensitivity to radiation", "setting": "[1]; glutathione about 5% of the control levels", "value": "marked increase in sensitivity to radiation"}]}]}
